Measurements published in paper PMC10447463, “Data-mining unveils structure–property–activity correlation of viral infectivity enhancing self-assembling peptides” (Nature Communications, 2023).
Where two headings read alike, the source gives them in different places.

Legend:
[1] = type: physicochemical; set-up: key to Fibril / Fibril Formation / TEM 2cat / Fibril: 1 = fibrils present; 0 non-fibrillar structures; conditions: for Fibril / Fibril Formation: TEM, 1 mg/mL, uranyl acetate stain, qualitative
[2] = Turbidity, derived count rate of scattered light; type: physicochemical; conditions: log10 of derived count rate of scattered light, Figure 7B
[3] = tested on: TZM-bl cells; type: cell-based; conditions: CellTiter-Glo, mean of n = 3 replicates; for viability 0.26 µM: peptide 0.26 µM; for viability 1.3 µM: peptide 1.3 µM; for viability 6.5 µM: peptide 6.5 µM
Summary of the method: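 Viability of TZM-bl cells (10,000 seeded) after 3 days with serially diluted peptides, measured by CellTiter-Glo luminescence. Values normalized to 100% metabolic activity; triplicates.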

[4] = Conversion rate (CR) assay with fluorescamine; type: physicochemical
Summary of the method: (§1)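 Using ATR FT-IR (diamond, 2 cm^-1, 64 scans), lyophilized 1 mg/mL PNF samples gave β-sheet content by a published calculation. Fluorescamine signals of 3 kDa filtrates relative to unfiltered samples, normalised to DMSO as 1, yielded CR in percent.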

[5] = β-sheet content by ATR-FT-IR; type: physicochemical
Summary of the method: as §1

In the case of KIKIQINMAQ [JR2], the “TEM: 1= fibrils, 0= aggregates (micelle), 0.5 = aggregates and fibrils, -1 = nothing obersved, STD prep” value (from here on “TEM: 1= fibrils, 0= aggregates (micelle)”) ([1]; FigS26) was 1.

With KIKIQINMWA [JR1] the “TEM: 1= fibrils, 0= aggregates (micelle)” value ([1]; FigS26) was 1.

In the case of KIKIQINMWQRGD [VH17-II], the “TEM: 1= fibrils, 0= aggregates (micelle)” value [1] was 0.

In the case of KIKIQINMWWQ [VH11], the “TEM: 1= fibrils, 0= aggregates (micelle)” value [1] was 0.5.

With KIKIQINMWWWQ [VH12] the “TEM: 1= fibrils, 0= aggregates (micelle)” value [1] was 0.5.

For KIKIQIRGD [MG6], the “TEM: 1= fibrils, 0= aggregates (micelle)” value ([1]; FigS26) was 1.

In the case of KIKIQIW [TM69], the “TEM: 1= fibrils, 0= aggregates (micelle)” value [1] was 1.

In the case of KIKIWIW, the “Fibril / Fibril Formation” value [1] was 1.

With KIKQIIN [JGA3] the “TEM: 1= fibrils, 0= aggregates (micelle)” value [1] was 0.5.

With KIWIWIW the “Fibril / Fibril Formation” value [1] was 1.

In the case of KLKLKLQL [TG16], the “TEM: 1= fibrils, 0= aggregates (micelle)” value [1] was 1.

For KLKLTLT, the “Fibril / Fibril Formation” value [1] was 1.

With KLVFFAK [reference compound] the “Fibril / Fibril Formation” value [1] was 1 and the “Log10 Count Rate” value [2] was 1.159.

In the case of KVKVKVQV [JG14 / TG14], the “TEM: 1= fibrils, 0= aggregates (micelle)” value [1] was 0.5.

With KVKVQVV [TG2] the “TEM: 1= fibrils, 0= aggregates (micelle)” value [1] was 0.5.

With KVKVQVVV [TG8] the “TEM: 1= fibrils, 0= aggregates (micelle)” value [1] was 1.

With KYFIL [reference compound] the “Fibril / Fibril Formation” value [1] was 0 and the “Log10 Count Rate” value [2] was 4.277.

In the case of KYKYQY [KB1], the “TEM: 1= fibrils, 0= aggregates (micelle)” value [1] was 0.

For LASLIYR [reference compound], the “Fibril / Fibril Formation” value [1] was 0 and the “Log10 Count Rate” value [2] was 2.0205.

With MKVIFLKDVKG [reference compound] the “Fibril / Fibril Formation” value [1] was 1 and the “Log10 Count Rate” value [2] was 2.137.

With NKGAII [reference compound] the “Fibril / Fibril Formation” value [1] was 0 and the “Log10 Count Rate” value [2] was 1.831.

With NMWQKAKAQA [JG10] the “TEM: 1= fibrils, 0= aggregates (micelle)” value ([1]; FigS26) was 1.

With NMWQKFKFQF [JG11] the “TEM: 1= fibrils, 0= aggregates (micelle)” value ([1]; FigS26) was 1.

With NMWQKIKIQI [JG9] the “TEM: 1= fibrils, 0= aggregates (micelle)” value ([1]; FigS26) was 1.

In the case of NMWQKIKQII [JG8], the “TEM: 1= fibrils, 0= aggregates (micelle)” value ([1]; FigS26) was 0.

In the case of RATVYV [reference compound], the “Fibril / Fibril Formation” value [1] was 1 and the “Log10 Count Rate” value [2] was 1.621.

With RFWFWFW the “Fibril / Fibril Formation” value [1] was 0.

For RGDKIKIQINM [MG8a / CN17], the “viability 0.26 µM” value [3] was 107.7, the “viability 1.3 µM” value [3] was 105.2 and the “viability 6.5 µM” value [3] was 86.63. For the same substance, the “Conversion Rate / %” value [4] was 73.83%, the “Conversion Rate / %” value ([4]; fluorescamine assay) was 73.83% and the “TEM: 1= fibrils, 0= aggregates (micelle)” value [1] was 1. For the same substance, the “FTIR ß-sheet content/ %” value [5] was 45.52% and the “FTIR ß-sheet content/ %” value ([5]; ATR-FT-IR) was 45.52%.

In the case of RGDKIKIQINMC [psis29], the “viability 0.26 µM” value [3] was 103.4, the “viability 1.3 µM” value [3] was 101.5 and the “viability 6.5 µM” value [3] was 82.89. For the same substance, the “TEM: 1= fibrils, 0= aggregates (micelle)” value ([1]; FigS26) was 1 and the “TEM: 1= fibrils, 0= aggregates (micelle)” value [1] was 1.

In the case of RGDKIKIQINMWQ [MG9a], the “viability 0.26 µM” value [3] was 104.4, the “viability 1.3 µM” value [3] was 105.9 and the “viability 6.5 µM” value [3] was 88.59. For the same substance, the “TEM: 1= fibrils, 0= aggregates (micelle)” value [1] was 0.5.

For RGDSGGGGGGKIKIQIC [TM114 / RC17], the “viability 0.26 µM” value [3] was 105.8, the “viability 1.3 µM” value [3] was 97.96 and the “viability 6.5 µM” value [3] was 78.89.

With RGECKFKFQF [CN16] the “viability 0.26 µM” value [3] was 105.4, the “viability 1.3 µM” value [3] was 106.3 and the “viability 6.5 µM” value [3] was 102.8. For the same substance, the “Conversion Rate / %” value ([4]; fluorescamine assay) was 98.71%, the “TEM: 1= fibrils, 0= aggregates (micelle)” value [1] was 1 and the “FTIR ß-sheet content/ %” value ([5]; ATR-FT-IR) was 46.18%.

For RGEKIKIQINM [CN18], the “viability 0.26 µM” value [3] was 93.96, the “viability 1.3 µM” value [3] was 87.66 and the “viability 6.5 µM” value [3] was 79.74. For the same substance, the “Conversion Rate / %” value ([4]; fluorescamine assay) was 80.28%, the “TEM: 1= fibrils, 0= aggregates (micelle)” value [1] was 1 and the “FTIR ß-sheet content/ %” value ([5]; ATR-FT-IR) was 43.05%.

For RINFWFW, the “Fibril / Fibril Formation” value [1] was 0.

For RIRFHIW, the “Fibril / Fibril Formation” value [1] was 0.

In the case of RLRLTLC [CN13], the “viability 0.26 µM” value [3] was 120.7, the “viability 1.3 µM” value [3] was 120.4 and the “viability 6.5 µM” value [3] was 108.4. For the same substance, the “Conversion Rate / %” value ([4]; fluorescamine assay) was 87.44%, the “TEM: 1= fibrils, 0= aggregates (micelle)” value [1] was 1 and the “FTIR ß-sheet content/ %” value ([5]; ATR-FT-IR) was 20.69%.

For RQGNINIVA [reference compound], the “Fibril / Fibril Formation” value [1] was 1 and the “Log10 Count Rate” value [2] was 1.551.

For RVHLGLG, the “Fibril / Fibril Formation” value [1] was 1.

With RVRVTVT the “Fibril / Fibril Formation” value [1] was 0.

With VHDCVNITIK [reference compound] the “Fibril / Fibril Formation” value [1] was 1 and the “Log10 Count Rate” value [2] was 4.098.
